Measurements taken from the NIST ThermoML archive (doi:10.1016/j.jct.2008.02.019).

Tests used:
[1] = excess molar enthalpy (molar enthalpy of mixing); xn = mol fraction of the nth substance listed; conditions: 101 kPa, Liquid, Flow calorimetry
[2] = xn = mol fraction of the nth substance listed; conditions: 101 kPa, Liquid
[3] = 318.15 K; 101.33 kPa; Liquid; Vibrating tube method
[4] = refractive index (Na D-line) (dimensionless); conditions: 101.33 kPa, Liquid, Standard Abbe refractometry

CCCC[n+]1ccc(C)cc1.F[B-](F)(F)F [1-butyl-4-methylpyridinium tetrafluoroborate] + O
Conditions | excess molar enthalpy [kJ/mol] | mass density [kg/m3]
[1], 298.15 K, x1 = 0.0072 | 0.104 | –
[1], 298.15 K, x1 = 0.0145 | 0.198 | –
[1], 298.15 K, x1 = 0.0215 | 0.284 | –
[1], 298.15 K, x1 = 0.0303 | 0.38 | –
[1], 298.15 K, x1 = 0.0406 | 0.491 | –
[1], 298.15 K, x1 = 0.0526 | 0.613 | –
[1], 298.15 K, x1 = 0.0659 | 0.74 | –
[1], 298.15 K, x1 = 0.0805 | 0.876 | –
[1], 298.15 K, x1 = 0.0963 | 1.01 | –
[1], 298.15 K, x1 = 0.1144 | 1.16 | –
[1], 298.15 K, x1 = 0.1563 | 1.46 | –
[1], 298.15 K, x1 = 0.1863 | 1.59 | –
[1], 298.15 K, x1 = 0.2196 | 1.7 | –
[1], 298.15 K, x1 = 0.2577 | 1.77 | –
[1], 298.15 K, x1 = 0.2972 | 1.81 | –
[1], 298.15 K, x1 = 0.3449 | 1.81 | –
[1], 298.15 K, x1 = 0.3974 | 1.76 | –
[1], 298.15 K, x1 = 0.4857 | 1.59 | –
[1], 298.15 K, x1 = 0.5954 | 1.34 | –
[1], 298.15 K, x1 = 0.7282 | 0.962 | –
[1], 298.15 K, x1 = 0.8706 | 0.486 | –
[1], 318.15 K, x1 = 0.0097 | 0.188 | –
[1], 318.16 K, x1 = 0.0226 | 0.392 | –
[1], 318.17 K, x1 = 0.0382 | 0.606 | –
[1], 318.18 K, x1 = 0.0565 | 0.825 | –
[1], 318.19 K, x1 = 0.0755 | 1.04 | –
[1], 318.2 K, x1 = 0.0949 | 1.23 | –
[1], 318.21 K, x1 = 0.1132 | 1.4 | –
[1], 318.22 K, x1 = 0.1187 | 1.51 | –
[1], 318.23 K, x1 = 0.1414 | 1.68 | –
[1], 318.24 K, x1 = 0.1695 | 1.84 | –
[1], 318.25 K, x1 = 0.2008 | 1.97 | –
[1], 318.26 K, x1 = 0.2346 | 2.09 | –
[1], 318.27 K, x1 = 0.2746 | 2.19 | –
[1], 318.28 K, x1 = 0.3253 | 2.25 | –
[1], 318.29 K, x1 = 0.383 | 2.23 | –
[1], 318.3 K, x1 = 0.441 | 2.16 | –
[1], 318.31 K, x1 = 0.5071 | 2.03 | –
[1], 318.32 K, x1 = 0.5961 | 1.76 | –
[1], 318.33 K, x1 = 0.6778 | 1.42 | –
[1], 318.34 K, x1 = 0.7866 | 0.988 | –
[1], 318.35 K, x1 = 0.9058 | 0.428 | –
[2], 298.15 K, x1 = 0.0502 | – | 1060.5
[2], 298.15 K, x1 = 0.1042 | – | 1094.8
[2], 298.15 K, x1 = 0.1512 | – | 1112.7
[2], 298.15 K, x1 = 0.2006 | – | 1126.1
[2], 298.15 K, x1 = 0.2543 | – | 1136.1
[2], 298.15 K, x1 = 0.2948 | – | 1142.4
[2], 298.15 K, x1 = 0.4 | – | 1154.1
[2], 298.15 K, x1 = 0.4913 | – | 1161.5
[2], 298.15 K, x1 = 0.6014 | – | 1168.3
[2], 298.15 K, x1 = 0.7228 | – | 1173.9
[2], 298.15 K, x1 = 0.7493 | – | 1175.1
[2], 298.15 K, x1 = 0.783 | – | 1176.4
[2], 298.15 K, x1 = 0.8449 | – | 1178.7
[2], 298.15 K, x1 = 0.8731 | – | 1179.8
[2], 298.15 K, x1 = 0.9504 | – | 1182.1
[2], 318.15 K, x1 = 0.0327 | – | 1033
[2], 318.15 K, x1 = 0.0994 | – | 1080
[2], 318.15 K, x1 = 0.1505 | – | 1098.7
[2], 318.15 K, x1 = 0.1989 | – | 1111.3
[2], 318.15 K, x1 = 0.236 | – | 1118.6
[2], 318.15 K, x1 = 0.2921 | – | 1127.6
[2], 318.15 K, x1 = 0.3237 | – | 1131.9
[2], 318.15 K, x1 = 0.4169 | – | 1141.3
[2], 318.15 K, x1 = 0.4841 | – | 1146.6
[2], 318.15 K, x1 = 0.6083 | – | 1154.2
[2], 318.15 K, x1 = 0.6715 | – | 1157.5
[2], 318.15 K, x1 = 0.7125 | – | 1159.2
[2], 318.15 K, x1 = 0.7299 | – | 1160
[2], 318.15 K, x1 = 0.8124 | – | 1163
[2], 318.15 K, x1 = 0.8565 | – | 1164.7
[2], 318.15 K, x1 = 0.8888 | – | 1165.8

CCCCCO [pentan-1-ol]
Conditions | mass density [kg/m3]
[3] | 796.1

[4]
Conditions | refractive index
298.15 K | 1.4078
318.15 K | 1.4003
